Patent US20210205336A1, “Storage-stable ready-to-use formulations of Tigecycline” (RK Pharma Solutions LLC, priority 2019, published 2021)
Values joined by “and” are separate entries in the source; they are usually repeats but may differ in a detail not shown here. Equal entries are not always repeated.

Experiment: Storage stability (purity and impurity profile) of ready-to-use tigecycline formulations at refrigeration, 2-8° C.
Type: physicochemical
Design: Tricyclic Impurity / Max. Unk Imp. / Oxo Impurity / Epimer Impurity / Total Impurity: unit not given here
Method: As used herein, and unless otherwise specified, the term “storage-stable” refers to any tigecycline-containing composition or formulation having sufficient physical and chemical stability to allow storage at a convenient temperature, such as between about 0° C. and about 50° C., for a commercially reasonable period of time. The phrase “physical stability” refers to maintenance of colour or colourless state, dissolved oxygen level, head space oxygen level and particulate matter and the phrase “chemical stability” relates to formation of drug-related impurities in terms of total impurities, single maximum individual impurity, or maximum individual unknown impurity. For pharmaceutical products, stability is required for commercially relevant times after manufacturing, such as for about 6, 12, 18, 24, or 36 months, during which time a product is kept in its original packaging under specified storage conditions. Solution A and Solution B were then further nitrogen purged for another 30 minutes and closed tightly after nitrogen flushing and covered with black cover. Solution A and solution B were stored in refrigerator (2-8° C.) for 02 hours. 100 mg tigecycline was charged in solution B followed by the addition of solution B to solution A while the solution A was kept at ice bath (e.g., about 0° C.). Now, the total 100 ml solution in the infusion bag was nitrogen purged for another 15 minutes and sealed after nitrogen flushing and stored at refrigerator (2-8° C.). […] Calcium chloride 60 mg and sodium bisulfite 2.5 mg were dissolved in 3 ml 5% dextrose for injection. The volume was made up to 5 ml with 5% dextrose solution. The solution was then nitrogen purged until dissolved oxygen reached <0.1 mg/L. 50 mg tigecycline was transferred into an amber color vial and then the 5 ml of the above solution was poured in the vial under nitrogen. The headspace of the vial was flushed through with nitrogen and packed. The vials were stored at refrigeration condition. Calcium chloride 60 mg and sodium bisulfite 2.5 mg were dissolved in 3 ml 5% dextrose. pH was adjusted to 5.5-6.0 pH range using 0.1 M meglumine solution, as required. The volume was made up to 5 ml with 5% dextrose solution. The solution was then nitrogen purged until dissolved oxygen reached <0.1 mg/L. 50 mg tigecycline was transferred into an amber colour vial and then the 5 ml of the above solution was poured in the vial under nitrogen. The headspace of the vial was flushed through with nitrogen and packed. The vials were stored at refrigeration condition. Calcium chloride 60 mg and sodium bisulfite 2.5 mg were dissolved in 3 ml 5% dextrose. pH was adjusted to 4.5-5.0 pH range using 0.1 M meglumine solution, as required. The volume was made up to 5 ml with 5% dextrose solution. The solution was then nitrogen purged until dissolved oxygen reached <0.1 mg/L. 50 mg tigecycline was transferred into an amber colour vial and then the 5 ml of the above solution was poured in the vial under nitrogen. The headspace of the vial was flushed through with nitrogen and packed. The vials were stored at refrigeration condition. Calcium chloride 60 mg and sodium bisulfite 2.5 mg were dissolved in 3 ml 0.9% NaCl Solution. The volume was made up to 5 ml with 0.9% NaCl Solution. […]

[1] = API (tigecycline before formulation)

SMILES: CN(C)c1cc(NC(=O)CNC(C)(C)C)c(O)c2c1C[C@H]1C[C@H]3[C@H](N(C)C)C(=O)/C(=C(\N)O)C(=O)[C@@]3(O)C(=O)C1=C2O [API, (4S,4aS,5aR,12aS)-9-[2-(tert-butylamino)acetamido]4,7-bis(dimethylamino)-1,4,4a,5,5a,6,11,12a-octahydro-3,10,12,12a-tetrahydroxy-1,11dioxo-2-naphthacenecarboxamide]
- % Purity [1]: 99.22% and 99.2% and 99.18%
- Epimer Impurity [1]: 0.5 and 0.48 and 0.49
- Max. Unk Imp. [1]: 0.05 and 0.04
- Oxo Impurity [1]: 0.02
- Tricyclic Impurity [1]: 0.03 and 0.04 and 0.05
- Purity (API (tigecycline before formulation), Tables 4A-9A): 99.3
- Rel. Comp. B (API (tigecycline before formulation), in % (unit assumed)): 0.01 and 0.02
- Total Impurity (API column, Day 1 (tigecycline before formulation)): 0.82
